In patent publication US8551984B2, “Aminopyrimidines as SYK inhibitors” (Merck Sharp & Dohme Corp., priority 2009, dated 2013):

The molecules below were run against recombinant human SYK (GST-hSYK fusion protein) (Homo sapiens, UniProt P43405). Settings: read-out: rhS YK Activity; Table 113C.
Description: Homogeneous Time-Resolved Fluorescence (HTRF) Assay for the Recombinant Human SYK Enzyme:

IC50	SMILES
< 100 nM	Cc1cc(Nc2nccc(C(C)C)n2)cc(-c2cnc(C3(O)CCCNCC3)s2)c1 (stereo not drawn) [113C-14]

Same assay, conditions: read-out: rhSYK Activity (IC50); recombinant human GST-SYK 5 pM, ATP 25 μM, biotinylated substrate peptide 250 nM, HTRF, 10-dose titration

IC50	SMILES
< 100 nM	Cc1cc(Nc2nccc(C(F)(F)F)n2)cc(-c2cnc(C(=O)NCC(O)CO)s2)c1 (stereo not drawn) [Example 87A-3]
< 100 nM	Cc1cc(Nc2nccc(C(F)(F)F)n2)cc(-c2cnc(C(=O)NC[C@@H](O)CO)s2)c1 [Example 87A-4]
< 100 nM	COC(=O)[C@H]1C[C@@H](O)CN1C(=O)c1ncc(-c2cc(C)cc(Nc3nccc(C(F)(F)F)n3)c2)s1 [Example 87B-23]
< 100 nM	Cc1cc(Nc2nccc(C(F)(F)F)n2)cc(-c2cnc(C(=O)N3CC(O)CC3C(=O)O)s2)c1 (stereo not drawn) [Example 87B-24]
< 100 nM	Cc1cc(Nc2nccc(OC3CNC3)n2)cc(-c2cnc(C3(O)CCC3)s2)c1 [Example 94A-28]
< 100 nM	Cc1cc(Nc2nccc(OC3CCNCC3F)n2)cc(-c2cnc(C(C)(O)C(F)(F)F)s2)c1 (stereo not drawn) [Example 94B-7]
< 100 nM	Cc1cc(Nc2nccc(O[C@@H]3CCNC3)n2)cc(-c2cnc(C(C)(O)C(F)(F)F)s2)c1 (stereo partly drawn) [Example 94B-8]
100 to 1000 nM	Cc1cc(Nc2nc(C)cc(C)n2)cc(-c2cnc(C3(O)CCC(C(=O)O)C(C)(C)C3)s2)c1 (stereo not drawn) [Example 100A-10]

Same assay, conditions: read-out: rhSYK Activity; Table 33-A

IC50	SMILES
< 100 nM	Cc1cc(Nc2nccc(C(F)(F)F)n2)cc(-c2cnc(C3(O)CCC(C(=O)O)CC3)s2)c1 (stereo not drawn) [Example 33A-6]
< 100 nM	Cc1cc(Nc2nccc(C(F)(F)F)n2)cc(-c2cnc(C3(O)CCC(CCC(=O)O)CC3)s2)c1 (stereo not drawn) [Example 33A-19]
< 100 nM	Cc1cc(Nc2nccc(C(F)(F)F)n2)cc(-c2cnc(C3(O)CCC(CCC(=O)O)CC3)s2)c1 (stereo not drawn) [Example 33A-20]
< 100 nM	Cc1cc(Nc2nccc(C)n2)cc(-c2cnc(C3(O)CCC(CC(=O)O)CC3)s2)c1 (stereo not drawn) [Example 33A-33]
< 100 nM	COc1ccnc(Nc2cc(C)cc(-c3cnc(C4(O)CCC(C(=O)O)CC4)s3)c2)n1 (stereo not drawn) [Example 33A-36]
< 100 nM	COc1ccnc(Nc2cc(C)cc(-c3cnc(C4(O)CCC(C)(C(=O)O)CC4)s3)c2)n1 (stereo not drawn) [Example 33A-37]
< 100 nM	Cc1cc(Nc2ncc(F)c(C3CC3)n2)cc(-c2cnc(C3(O)CCC(C(=O)O)C(C)(C)C3)s2)c1 (stereo not drawn) [Example 33A-41]
< 100 nM	Cc1cc(Nc2nccc(C3CC3)n2)cc(-c2cnc(C3(O)CCC(C(=O)O)C(C)(C)C3)s2)c1 (stereo not drawn) [Example 33A-42]
< 100 nM	CC1(C)CC(O)(c2ncc(-c3cc(CO)cc(Nc4nccc(C(F)(F)F)n4)c3)s2)CCC1C(=O)O (stereo not drawn) [Example 33A-53]
< 100 nM	Cc1cc(Nc2nccc(C)n2)cc(-c2cnc(C3(O)CCC(C(=O)O)C(C)(C)C3)s2)c1 (stereo not drawn) [Example 33A-68]
< 100 nM	Cc1cc(Nc2nccc(C(F)(F)F)n2)cc(-c2cnc(C3(O)CCC(C(=O)O)C(C)(C)C3C)s2)c1 (stereo not drawn) [Example 33A-76]

Same assay, conditions: read-out: rhSYK Activity; Table 33B

IC50	SMILES
< 100 nM	Cc1cc(Nc2nccc(C(F)(F)F)n2)cc(-c2cnc(C3(O)CCCC(C(=O)O)C(C)(C)C3)s2)c1 (stereo not drawn) [Example 33B-8]
< 100 nM	Cc1cc(Nc2nccc(C(F)(F)F)n2)cc(-c2cnc(C3(O)CCCC(C(=O)O)C(C)(C)C3)s2)c1 (stereo not drawn) [Example 33B-9]
< 100 nM	Cc1cc(Nc2nccc(C(F)(F)F)n2)cc(-c2cnc(C3(O)CCCC(C(=O)O)C(C)(C)C3)s2)c1 (stereo not drawn) [Example 33B-10]
< 100 nM	Cc1cc(Nc2nccc(C(F)(F)F)n2)cc(-c2cnc(C3(O)CCCC(C(=O)O)C(C)(C)C3)s2)c1 (stereo not drawn) [Example 33B-12]
< 100 nM	Cc1cc(Nc2nccc(C)n2)cc(-c2cnc(C3(O)CCC(C(=O)O)C(C)C3)s2)c1 (stereo not drawn) [Example 33B-32]
< 100 nM	Cc1cc(Nc2nccc(C)n2)cc(-c2cnc(C3(O)CCC(C(=O)O)C(C(C)C)C3)s2)c1 (stereo not drawn) [Example 33B-34]
< 100 nM	Cc1cc(Nc2nccc(C)n2)cc(-c2cnc(C3(O)CCC(C(=O)O)C(C(C)C)C3)s2)c1 (stereo not drawn) [Example 33B-36]

Same assay, conditions: read-out: rhSYK Activity; Table 33C

IC50	SMILES
< 100 nM	Cc1cc(Nc2nccc(C(F)(F)F)n2)cc(-c2cnc(C3(O)C[C@@H]4C(C(=O)O)[C@@H]4C3)s2)c1 (stereo partly drawn) [Example 33C-10]
< 100 nM	CCOC(=O)C1[C@H]2CC(O)(c3ncc(-c4cc(C)cc(Nc5nccc(C(F)(F)F)n5)c4)s3)C[C@@H]12 (stereo partly drawn) [Example 33C-12]
< 100 nM	Cc1cc(Nc2nccc(C)n2)cc(-c2cnc(C3(O)CC4CCC3CC4C(=O)O)s2)c1 (stereo not drawn) [Example 33C-19]

Same assay, conditions: read-out: rhSYK Activity; Table 36A

IC50	SMILES
100 to 1000 nM	COC(=O)C1CCC(c2ncc(-c3cccc(Nc4nccc(C(F)(F)F)n4)c3)s2)CC1 (stereo not drawn) [Example 36A-5]

Same assay, conditions: read-out: rhSYK Activity; Table 54B

IC50	SMILES
< 100 nM	Cc1cc(Nc2nccc(C)n2)cc(-c2cnc(C3(O)CCN(C(N)=O)C3)s2)c1 (stereo not drawn) [54B-14]
< 100 nM	Cc1cc(Nc2nccc(C)n2)cc(-c2cnc(C3(O)CCN(C(N)=O)C3)s2)c1 (stereo not drawn) [54B-15]

Same assay, conditions: read-out: rhSYK Activity; Table 54D

IC50	SMILES
< 100 nM	Cc1cc(Nc2nccc(C(C)C)n2)cc(-c2cnc(C3(O)CCCN(C(=O)C(C)O)CC3)s2)c1 (stereo not drawn) [Example 54D-3]
< 100 nM	Cc1cc(Nc2nccc(C(F)(F)F)n2)cc(-c2cnc(C3(O)CCCN(C(=O)c4cnn[nH]4)CC3)s2)c1 (stereo not drawn) [Example 54D-35]
< 100 nM	Cc1cc(Nc2nccc(C(F)(F)F)n2)cc(-c2cnc(C3(O)CCCN(C(=O)c4n[nH]c(=O)[nH]4)CC3)s2)c1 (stereo not drawn) [Example 54D-63]
< 100 nM	Cc1cc(Nc2nccc(C(F)(F)F)n2)cc(-c2cnc(C3(O)CCCN(C(=O)CC4CCOC4)CC3)s2)c1 (stereo not drawn) [Example 54D-69]
< 100 nM	Cc1cc(Nc2nccc(C(F)(F)F)n2)cc(-c2cnc(C3(O)CCCN(C(=O)Cc4n[nH]c(=O)[nH]4)CC3)s2)c1 (stereo not drawn) [Example 54D-94]

Same assay, conditions: read-out: rhSYK Activity; Table 54E

IC50	SMILES
< 100 nM	Cc1cc(Nc2nccc(C(F)(F)F)n2)cc(-c2cnc(C3(O)CCC(NC(=O)CC4CCCO4)CC3)s2)c1 (stereo not drawn) [Example 54E-19]

Same assay, conditions: read-out: rhSYK Activity; Table 74A

IC50	SMILES
100 to 1000 nM	CC(C)(c1ncc(-c2cc(F)cc(Nc3nccc(C(F)(F)F)n3)c2)s1)S(N)(=O)=O [74A-10]

Same assay, conditions: read-out: rhSYK Activity; Table 108A

IC50	SMILES
< 100 nM	Cc1cc(Nc2nccc(OC3CCCNCC3)n2)cc(-c2cnc(C3(O)CCC3)s2)c1 (stereo not drawn) [Example 108A-10]
< 100 nM	Cc1cc(Nc2nccc(OC3CCCNCC3)n2)cc(-c2cnc(C3(O)CCC3)s2)c1 (stereo not drawn) [Example 108A-11]

Same assay, conditions: read-out: rhSYK Activity; Table 113A

IC50	SMILES
< 100 nM	Cc1cc(Nc2nccc(C)n2)cc(-c2cnc(C3(O)CCC(C(=O)O)C(C)C3)s2)c1 (stereo not drawn) [Example 113A-5]
< 100 nM	Cc1cc(Nc2nccc(C)n2)cc(-c2cnc(C3(O)CCC(C(=O)O)C(C)C3)s2)c1 (stereo not drawn) [Example 113A-6]
< 100 nM	Cc1cc(Nc2nccc(C)n2)cc(-c2cnc(C3(O)CCC(C(=O)O)C(C)C3)s2)c1 (stereo not drawn) [Example 113A-7]
< 100 nM	CCc1ccnc(Nc2cc(C)cc(-c3cnc(C4(O)CCC(C(=O)O)C(C)C4)s3)c2)n1 (stereo not drawn) [Example 113A-15]
< 100 nM	Cc1ccnc(Nc2cc(-c3cnc(C4(O)CCC(C(=O)O)C(C)C4)s3)cc(C3CC3)c2)n1 (stereo not drawn) [Example 113A-24]
< 100 nM	CCOC(=O)C1CCC(O)(c2ncc(-c3cc(C)cc(Nc4nccc(CC)n4)c3)s2)CC1C (stereo not drawn) [Example 113A-32]
< 100 nM	COCCOc1ccnc(Nc2cc(C)cc(-c3cnc(C4(O)CCC(C(=O)O)C(C)C4)s3)c2)n1 (stereo not drawn) [Example 113A-39]
< 100 nM	COCCCOc1ccnc(Nc2cc(C)cc(-c3cnc(C4(O)CCC(C(=O)O)C(C)C4)s3)c2)n1 (stereo not drawn) [Example 113A-41]
< 100 nM	CCOC(=O)C1CCC(O)(c2ncc(-c3cc(C)cc(Nc4nccc(OCCOC)n4)c3)s2)CC1C (stereo not drawn) [Example 113A-44]
< 100 nM	CCOC(=O)C1CCC(O)(c2ncc(-c3cc(C)cc(Nc4nccc(OCCCOC)n4)c3)s2)CC1C (stereo not drawn) [Example 113A-48]
< 100 nM	Cc1cc(Nc2nccc(C)n2)cc(-c2cnc(C3(O)CCC(C(=O)O)C(C)C3C)s2)c1 (stereo not drawn) [Example 113A-67]
< 100 nM	Cc1cc(Nc2nccc(C)n2)cc(-c2cnc(C3(O)CCC(C(=O)O)C(C)C3C)s2)c1 (stereo not drawn) [Example 113A-68]
< 100 nM	Cc1cc(Nc2nccc(C)n2)cc(-c2cnc(C3(O)CCC(C(=O)O)C(C)C3C)s2)c1 (stereo not drawn) [Example 113A-69]
< 100 nM	CCOC(=O)C1CCC(O)(c2ncc(-c3cc(C)cc(Nc4nccc(C)n4)c3)s2)C(C)C1C (stereo not drawn) [Example 113A-71]
< 100 nM	CCOC(=O)C1CCC(O)(c2ncc(-c3cc(C)cc(Nc4nccc(C)n4)c3)s2)C(C)C1C (stereo not drawn) [Example 113A-72]
< 100 nM	CCOC(=O)C1CCC(O)(c2ncc(-c3cc(C)cc(Nc4nccc(C)n4)c3)s2)C(C)C1C (stereo not drawn) [Example 113A-73]
< 100 nM	Cc1cc(Nc2nccc(C)n2)cc(-c2cnc(C3(O)CCC(C(=O)O)CC3C)s2)c1 (stereo not drawn) [Example 113A-81]
< 100 nM	Cc1cc(Nc2nccc(C)n2)cc(-c2cnc(C3(O)CCC(C(=O)O)CC3C)s2)c1 (stereo not drawn) [Example 113A-82]
< 100 nM	Cc1cc(Nc2nccc(C)n2)cc(-c2cnc(C3(O)CCC(C(=O)O)CC3C)s2)c1 (stereo not drawn) [Example 113A-83]
< 100 nM	Cc1cc(Nc2nccc(C)n2)cc(-c2cnc(C3(O)CCC(C(=O)O)CC3C)s2)c1 (stereo not drawn) [Example 113A-84]
< 100 nM	Cc1cc(Nc2nccc(C)n2)cc(-c2cnc(C3(O)CCC(C(=O)O)CC3C)s2)c1 (stereo not drawn) [Example 113A-85]
< 100 nM	Cc1cc(Nc2nccc(C)n2)cc(-c2cnc(C3(O)CCC(C(=O)O)CC3C)s2)c1 (stereo not drawn) [Example 113A-86]
< 100 nM	Cc1cc(Nc2nccc(C)n2)cc(-c2cnc(C3(O)CCC(C(=O)O)CC3O)s2)c1 (stereo not drawn) [Example 113A-91]

Same assay, conditions: read-out: rhSYK Activity; Table 113B

IC50	SMILES
< 100 nM	Cc1cc(Nc2nccc(C)n2)cc(-c2cnc(C3(O)CC(C)C(C(=O)O)CC3C)s2)c1 (stereo not drawn) [Example 113B-1]
< 100 nM	Cc1cc(Nc2nccc(C)n2)cc(-c2cnc(C3(O)CC(C)C(C(=O)O)CC3C)s2)c1 (stereo not drawn) [Example 113B-2]

Same assay, conditions: read-out: rhSYK Activity; Table 116A

IC50	SMILES
< 100 nM	Cc1cc(Nc2nccc(C(F)F)n2)cc(-c2cnc(C3(O)CCC(C(=O)O)C(C)C3)s2)c1 (stereo not drawn) [116A-19]
< 100 nM	Cc1cc(Nc2ncc(Cl)c(C)n2)cc(-c2cnc([C@]3(O)CC[C@@H](C(=O)O)C(C)(C)C3)s2)c1 [116A-26]
